# Test system: organoid bodies
# Assay: Western blot of the liver protein α-fetoprotein in homogenates of organoid bodies incubated with HGF
# Type: cell-based
# Details: 40 ng/ml HGF
# Protocol: In this example organoid bodies were exposed for a time period of 1 to 2 days to different micromolar concentrations of puromycin, an active substance that inhibits translation. Then, the size of the treated organoid bodies was compared with those of an untreated control (see comparative micrograph in FIG. 5A). In a second detection method the organoids were taken up in 10 ml lysis buffer containing 7.5 ml PBS, 2.5 ml NP-40 and 1 mM PEFA block, stored overnight in a refrigerator at 4° C. and then homogenized in minihomogenizers for Eppendorf tubes. The homogenate was centrifuged, the supernatant removed and resolved electrophoretically according to standard methods and the gel subjected to a Western immunoblot. […] The first four bands are produced by the different active amounts of puromycin, the last two show the amount of vigilin in the untreated organoids; the same amount of total protein was always applied per track.
# The organoid bodies were incubated with 40 ng/ml HGF (hepatocyte growth factor) or without HFG for 7, 11 14 and 17 days. Then, the organoid bodies were homogenized as described in example 7 and subjected to a Western blot assay. The production of the liver protein α-fetoprotein was examined (FIG. 7).
substance,measurement,setting,value
"HGF: hepatocyte growth factor, a differentiation factor for increased formation of cardiac and liver cells",production of the liver protein α-fetoprotein,after 7 and 11 days of incubation,distinct synthesis of the fetoprotein can be observed
same,production of the liver protein α-fetoprotein,longer exposure time (14 and 17 days),tends to inhibit the production again

# Source: patent publication US20080064034A1, “Multi-Cellular Test Systems” (FRAUNHOFER-GESELLSCHAFT ZUR FÖRDERUNG DER ANGEWAND, priority 2004, published 2008)
